Test results taken from US20090221513A1, “Treatment of Neurodegenerative Disorders” (The Open University, priority 2005, published 2009).
Entries after “also recorded” stand apart in the source; their conditions may differ. Where a SMILES comes first, the peptide text is derived from it. [ ]: non-standard residue; d: D form. ξ: configuration not given here. ξR = N=C(N)NCCCC(N)C(=O)O; ξE = NC(CCC(=O)O)C(=O)O

Legend:
[1] = test system: chicks trained on a weak training task; settings: as described in WO02/083729; cited from earlier work
[2] = test system: chicks with Anisomycin-induced amnesia; assay: passive avoidance task, Anisomycin-induced amnesia in chicks; assay type: in vivo, chick; settings: 8 μg/hemisphere ic pre-training; Anisomycin 125 nmol/hemisphere ic immediately post-training; tested 3 hr post training
Experimental: FIG. 7 Effect of Ac-rER on Anisomycin-induced amnesia in chicks. Chicks were injected ic with 8 μg/hemisphere of Ac-rER 60 min pre-training followed by ic injection of Anisomycin (125 nmol/hemisphere). immediately post-training. Controls were injected with saline. Chicks were tested 3 hr post training. […] Each chick was trained and tested only once and differences between groups were tested for statistical significance by G-test (Sokal, and Rohlf, 1995).
Commercially obtained Ross Chunky eggs were incubated and hatched in brooders and held until 16±6 hours old. Chicks were placed in pairs in small aluminium pens. Following an equilibration period of an hour, the chicks were pretrained and trained essentially as described by Lossner and Rose (J. Neurochem. 41, 1357-1363 (1983), the contents of which are incorporated herein by reference). Pretraining involved three 10 s presentations of a small (2 mm diameter) white bead, at approximately 5 minute intervals. […] Two training techniques were used: “strong” and “weak” training. […] Recall is calculated as a percent avoidance score (percentage of chicks which avoid the chrome bead) and as a discrimination score (percentage of chicks which avoid the chrome but peck at the white bead). […]

[3] = test system: chicks trained on a weak training task; assay: one trial passive avoidance task, weak training (10% methylanthranilate), memory enhancement; assay type: in vivo, chick; settings: for bio-activity as a cognitive enhancer: chick, D/L forms compared with RER; for memory retention (percent showing avoidance and discrimination), FIG. 1: weak aversive learning task, ic injection 60 min pre-training, saline control
Experimental: FIG. 1 The effect of different D/L forms of tripeptide as memory enhancers on weak memory. Chicks were injected ic with different D/L forms of tripeptide 60 min pre-training and tested 24 after. The control group received saline. […] Each chick was trained and tested only once and differences between groups were tested for statistical significance by G-test (Sokal, and Rohlf, 1995). Note that the G-test reflects group differences, and so there are no error bars on the figures.
FIG. 3 The effect of Ac-rER as memory enhancer in chicks trained on a weak training task (WT). Chicks were injected 2×ip injections, 1 mg/100 gr bw, 30 min and 6 hr pre-training and tested 24 hr later. The control groups received Ac-REr. […] Each chick was trained and tested only once and differences between groups were tested for statistical significance by G-test (Sokal, and Rohlf, 1995).
FIG. 5 Dose-dependence of the effect of Ac-rER in weak training. Chicks were injected ip with different doses of the Ac-rER 60 min pre-training and tested 24 after. The control group received saline. […] Each chick was trained and tested only once and differences between groups were tested for statistical significance by G-test (Sokal, and Rohlf, 1995).
FIG. 6 Stability of Ac-rER. Chicks were injected ip with 2 mg/100 g bw of Ac-rER 1, 2, 4, 6 and 12 hr before training and tested 24 hr later. The control group received saline. […] Each chick was trained and tested only once and differences between groups were tested for statistical significance by G-test (Sokal, and Rohlf, 1995). […]
Commercially obtained Ross Chunky eggs were incubated and hatched in brooders and held until 16±6 hours old. Chicks were placed in pairs in small aluminium pens. Following an equilibration period of an hour, the chicks were pretrained and trained essentially as described by Lossner and Rose (J. Neurochem. 41, 1357-1363 (1983), the contents of which are incorporated herein by reference). Pretraining involved three 10 s presentations of a small (2 mm diameter) white bead, at approximately 5 minute intervals. […] Two training techniques were used: “strong” and “weak” training. In both, 5 to 10 minutes after the last pre-training trial, chicks were trained by a 10 s presentation of a 4 mm diameter chrome bead, which had been dipped in the bitter-tasting methylanthranilate. Control chicks pecked at a water-coated or dry bead. In the “strong” version of the task, 100% methylanthranilate was used. In the “weak” version, 10% methylanthranilate was used. Chicks spontaneously pecked at the training or control beads within 20 s. Chicks that pecked at the bitter bead evinced a disgust reaction and would not normally peck at a similar, but dry bead for some hours subsequently. At various times following training chicks were tested, by offering them a dry 4 mm diameter chrome bead, followed 10 minutes later by a small (2 mm diameter) white bead, each for 20 to 30 s. Animals were tested by an experimenter blind as to which treatment each chick had received. Chicks are considered to remember the task if they avoid the chrome bead at test but peck at the white bead (discriminate), and to have forgotten it if they peck at both beads. Recall is calculated as a percent avoidance score (percentage of chicks which avoid the chrome bead) and as a discrimination score (percentage of chicks which avoid the chrome but peck at the white bead). […] Each chick was trained and tested only once and differences between groups tested for statistical significance by g-test described by Sokal and Rohlf (biometry: the Principles and Practice of Statistics in Biological Research (2nd edition), W H Freeman, New York (1981)), the contents of which are incorporated herein by reference. […]

[4] = test system: chicks with MK801-induced amnesia; assay: passive avoidance task, MK801-induced amnesia in chicks; assay type: in vivo, chick; settings: 8 μg/hemisphere ic pre-training; MK801 0.020 mg/100 gr ip pre-training; tested 3 hr later
Experimental: FIG. 8 Effect of Ac-rER on MK801-induced amnesia. Chicks were injected ic with 8 μg/hemisphere of Ac-rER 60 min pre-training followed by ip injection of MK80 1 (0.020 mg/100 gr) pre-training. Controls were injected with saline. Chicks were tested 3 hr later. […] Each chick was trained and tested only once and differences between groups were tested for statistical significance by G-test (Sokal, and Rohlf, 1995).
Commercially obtained Ross Chunky eggs were incubated and hatched in brooders and held until 16±6 hours old. Chicks were placed in pairs in small aluminium pens. Following an equilibration period of an hour, the chicks were pretrained and trained essentially as described by Lossner and Rose (J. Neurochem. 41, 1357-1363 (1983), the contents of which are incorporated herein by reference). Pretraining involved three 10 s presentations of a small (2 mm diameter) white bead, at approximately 5 minute intervals. […] Two training techniques were used: “strong” and “weak” training. In both, 5 to 10 minutes after the last pre-training trial, chicks were trained by a 10 s presentation of a 4 mm diameter chrome bead, which had been dipped in the bitter-tasting methylanthranilate. […] Recall is calculated as a percent avoidance score (percentage of chicks which avoid the chrome bead) and as a discrimination score (percentage of chicks which avoid the chrome but peck at the white bead). […]

[5] = test system: chicks with Aβ1-42-induced amnesia; assay: passive avoidance task in chicks with Aβ-induced amnesia; assay type: in vivo, chick; settings: for protection against amyloid-beta induced memory loss: chick
Experimental: FIG. 2 The effect of Ac-rER on memory in chicks with Aβ-induced amnesia. Chicks were injected 2×ip, 1 mg/100 gr bw, with Ac-rER, 6 hr and 12 hr pre-training. Aβ1-42 (2 μg/hemisphere) was injected ic 60 min pre-training. Chicks were tested 24 hr later. […] Each chick was trained and tested only once and differences between groups were tested for statistical significance by G-test (Sokal, and Rohlf, 1995).
Commercially obtained Ross Chunky eggs were incubated and hatched in brooders and held until 16±6 hours old. Chicks were placed in pairs in small aluminium pens. Following an equilibration period of an hour, the chicks were pretrained and trained essentially as described by Lossner and Rose (J. Neurochem. 41, 1357-1363 (1983), the contents of which are incorporated herein by reference). Pretraining involved three 10 s presentations of a small (2 mm diameter) white bead, at approximately 5 minute intervals. […] Two training techniques were used: “strong” and “weak” training. In both, 5 to 10 minutes after the last pre-training trial, chicks were trained by a 10 s presentation of a 4 mm diameter chrome bead, which had been dipped in the bitter-tasting methylanthranilate. Control chicks pecked at a water-coated or dry bead. In the “strong” version of the task, 100% methylanthranilate was used. In the “weak” version, 10% methylanthranilate was used. Chicks spontaneously pecked at the training or control beads within 20 s. Chicks that pecked at the bitter bead evinced a disgust reaction and would not normally peck at a similar, but dry bead for some hours subsequently. At various times following training chicks were tested, by offering them a dry 4 mm diameter chrome bead, followed 10 minutes later by a small (2 mm diameter) white bead, each for 20 to 30 s. Animals were tested by an experimenter blind as to which treatment each chick had received. […] Recall is calculated as a percent avoidance score (percentage of chicks which avoid the chrome bead) and as a discrimination score (percentage of chicks which avoid the chrome but peck at the white bead). […]

Row | Molecule | time prior to training at which injection is still effective (maximum), unprotected L-form [1] [h] | effect on Anisomycin-induced amnesia, FIG. 7 [2] | performance on the weak training task, FIG. 3 ([3]; 2×ip injections, 1 mg/100 gr bw, 30 min and 6 hr pre-training, tested 24 hr later, control Ac-REr) | bio-activity as a cognitive enhancer [3] | bio-activity as a cognitive enhancer ([3]; listed as Ac-RER) | dose sufficient to enhance memory, FIG. 5 ([3]; ip 60 min pre-training, tested 24 after) [mg per 100 g body weight] | time prior to training at which injection still acts as cognitive enhancer and neuroprotective agent ([3]; ip, FIGS. 2 and 3) | persistence of effect: time before training at which peptide is effective, FIG. 6 ([3]; single ip injection of 1-2 mg/100 g bw, tested 24 hr later) [h] | time of administration before training at which peptide is most effective, FIG. 6 ([3]; single ip injection, weak training) [h] | memory retention (percent showing avoidance and discrimination), FIG. 1 ([3]; tested 24 after) | memory retention (percent showing avoidance and discrimination), FIG. 1 ([3]; tested 24 after, listed as Ac-ReR) | effect on MK801-induced amnesia, FIG. 8 [4] | memory retention in Aβ-induced amnesia, FIG. 2 ([5]; 2×ip, 1 mg/100 gr bw, 6 hr and 12 hr pre-training, Aβ1-42 2 μg/hemisphere ic 60 min pre-training, tested 24 hr later) | protection against amyloid-beta induced memory loss [5] | protection against amyloid-beta induced memory loss ([5]; listed as Ac-RER)
1 | Arg-Glu-Arg [RER] | ≤ 3 |  |  |  |  |  |  |  |  |  |  |  |  |  | 
2 | CC(=O)NC(CCCNC(=N)N)C(=O)NC(CCC(=O)O)C(=O)N[C@@H](CCCNC(=N)N)C(N)=O (stereo partly drawn) [Ac-rER] (Ac-[ξR]-[ξE]-Arg-NH2) |  | prevents either of these drugs from inducing amnesia | significantly enhanced; also recorded: effective when injected peripherally | active as a cognitive enhancer | effective as a cognitive enhancer | 1 | up to 12 hr | ≤ 12 | 4 | enhances memory retention to the levels observed in the chick treated with the Ac-L/L/L/ form | significant but lesser effects | prevents either of these drugs from inducing amnesia | restores cognitive function and prevents memory loss | protecting against amyloid-beta induced memory loss | protecting against amyloid-beta
